Data set [1] has as its target T1, TRPM7 WT (Mus musculus, UniProt Q923J1).
T1 construct: expressed in transfected cells; host or cells: HEK 293T
As to the kind of experiment: Aequorin-based Ca2+ influx assay, inhibition of TRPM7-mediated Ca2+ influx. The class given is cell-based. The procedure:
(§1) Measurements of [Ca^2+]i were performed as reported previously with several modifications[2],[52],[54]. HEK 293T cells (mycoplasma test negative, ATCC #CRL3216) were maintained at 37 °C and 5% CO2 in DMEM supplemented with 10% fetal calf serum, 100 µg/ml streptomycin and 100 U/ml penicillin (all from Thermo Fisher Scientific). Cells cultured in six-well plates (~60% confluence) were transfected with 2 µg/dish Trpm7 plasmid DNA and 0.1 µg/dish pG5A plasmid DNA encoding eGFP fused to Aequorea victoria aequorin, using Lipofectamine 2000 (Thermo Fisher Scientific). Twenty-four hours after transfection, the cells were washed with Mg^2+-free HEPES-buffered saline (Mg^2+-free HBS) containing 140 mM NaCl, 6 mM KCl, 0.5 mM CaCl2, 10 mM HEPES (pH 7.4) and 5 mM glucose, and mechanically resuspended in the Mg^2+-free HBS. For reconstitution of aequorin, cell suspensions were incubated with 5 µM coelenterazine (Biaffin GmbH) in the Mg^2+-free HBS for 30 min at room temperature. Cells were washed twice by centrifugation at 600 rpm for 5 min (Heraeus Pico 17 microcentrifuge, Thermo Fisher Scientific), resuspended in the Mg^2+-free HBS and aliquoted into 96-well plates (1 × 10^5 cells per well). Luminescence was detected at room temperature using a FLUOstar OPTIMA microplate reader (BMG LABTECH GmbH). To monitor the NS8593- and VER155008-induced inhibition of TRPM7-mediated Ca^2+ influx, the extracellular concentration of Ca^2+ was increased to 5 mM by injecting the CaCl2-containing Mg^2+-free HBS in the absence or presence of the inhibitors. […] To study activation by naltriben, TRPM7-transfected cells were exposed to Mg^2+-free HBS containing different concentrations of the agonist. The experiments were terminated by lysing cells with 0.1% (v/v) Triton X-100 in the Mg^2+-free HBS to record the total bioluminescence. The bioluminescence rates (counts/s) were analyzed at 1-s intervals and calibrated as [Ca^2+]i values using the following equation:1 p[Ca^2+]i=0.332588(−log(k))+5.5593 where k represents the rate of aequorin consumption, i.e., counts/s divided by the total number of counts.
(§2) To determine the IC50 values for NS8593 and VER155008 (EC50 for naltriben), the data were fitted with the following logistic equation:2 Ec=Emin+Emax+Emin/1+c^h/IC50^h where E(c) is the functional effect at the concentration c of the compound, Emin is the minimal effect, Emax is the maximal effect, IC50 (EC50) is the concentration of the compound that produces the half-maximal effect, and h is the Hill coefficient. Fitting of dose-response curves was performed using GraphPad Prism 8.4.0. Data are presented as the mean ± SEM.

Data set [2] addresses T2, TRPM7-A981L (Mus musculus, UniProt Q923J1, A981L).
T2 construct: expressed in transfected cells; host or cells: HEK 293T
The data set is described as above. It is filed as cell-based. The procedure:
as §1, §2

The target of data set [3] is T3, TRPM7-A981V (Mus musculus, UniProt Q923J1, A981V).
T3 construct: expressed in transfected cells; host or cells: HEK 293T
T3 sequence (Q923J1 whole entry A981V): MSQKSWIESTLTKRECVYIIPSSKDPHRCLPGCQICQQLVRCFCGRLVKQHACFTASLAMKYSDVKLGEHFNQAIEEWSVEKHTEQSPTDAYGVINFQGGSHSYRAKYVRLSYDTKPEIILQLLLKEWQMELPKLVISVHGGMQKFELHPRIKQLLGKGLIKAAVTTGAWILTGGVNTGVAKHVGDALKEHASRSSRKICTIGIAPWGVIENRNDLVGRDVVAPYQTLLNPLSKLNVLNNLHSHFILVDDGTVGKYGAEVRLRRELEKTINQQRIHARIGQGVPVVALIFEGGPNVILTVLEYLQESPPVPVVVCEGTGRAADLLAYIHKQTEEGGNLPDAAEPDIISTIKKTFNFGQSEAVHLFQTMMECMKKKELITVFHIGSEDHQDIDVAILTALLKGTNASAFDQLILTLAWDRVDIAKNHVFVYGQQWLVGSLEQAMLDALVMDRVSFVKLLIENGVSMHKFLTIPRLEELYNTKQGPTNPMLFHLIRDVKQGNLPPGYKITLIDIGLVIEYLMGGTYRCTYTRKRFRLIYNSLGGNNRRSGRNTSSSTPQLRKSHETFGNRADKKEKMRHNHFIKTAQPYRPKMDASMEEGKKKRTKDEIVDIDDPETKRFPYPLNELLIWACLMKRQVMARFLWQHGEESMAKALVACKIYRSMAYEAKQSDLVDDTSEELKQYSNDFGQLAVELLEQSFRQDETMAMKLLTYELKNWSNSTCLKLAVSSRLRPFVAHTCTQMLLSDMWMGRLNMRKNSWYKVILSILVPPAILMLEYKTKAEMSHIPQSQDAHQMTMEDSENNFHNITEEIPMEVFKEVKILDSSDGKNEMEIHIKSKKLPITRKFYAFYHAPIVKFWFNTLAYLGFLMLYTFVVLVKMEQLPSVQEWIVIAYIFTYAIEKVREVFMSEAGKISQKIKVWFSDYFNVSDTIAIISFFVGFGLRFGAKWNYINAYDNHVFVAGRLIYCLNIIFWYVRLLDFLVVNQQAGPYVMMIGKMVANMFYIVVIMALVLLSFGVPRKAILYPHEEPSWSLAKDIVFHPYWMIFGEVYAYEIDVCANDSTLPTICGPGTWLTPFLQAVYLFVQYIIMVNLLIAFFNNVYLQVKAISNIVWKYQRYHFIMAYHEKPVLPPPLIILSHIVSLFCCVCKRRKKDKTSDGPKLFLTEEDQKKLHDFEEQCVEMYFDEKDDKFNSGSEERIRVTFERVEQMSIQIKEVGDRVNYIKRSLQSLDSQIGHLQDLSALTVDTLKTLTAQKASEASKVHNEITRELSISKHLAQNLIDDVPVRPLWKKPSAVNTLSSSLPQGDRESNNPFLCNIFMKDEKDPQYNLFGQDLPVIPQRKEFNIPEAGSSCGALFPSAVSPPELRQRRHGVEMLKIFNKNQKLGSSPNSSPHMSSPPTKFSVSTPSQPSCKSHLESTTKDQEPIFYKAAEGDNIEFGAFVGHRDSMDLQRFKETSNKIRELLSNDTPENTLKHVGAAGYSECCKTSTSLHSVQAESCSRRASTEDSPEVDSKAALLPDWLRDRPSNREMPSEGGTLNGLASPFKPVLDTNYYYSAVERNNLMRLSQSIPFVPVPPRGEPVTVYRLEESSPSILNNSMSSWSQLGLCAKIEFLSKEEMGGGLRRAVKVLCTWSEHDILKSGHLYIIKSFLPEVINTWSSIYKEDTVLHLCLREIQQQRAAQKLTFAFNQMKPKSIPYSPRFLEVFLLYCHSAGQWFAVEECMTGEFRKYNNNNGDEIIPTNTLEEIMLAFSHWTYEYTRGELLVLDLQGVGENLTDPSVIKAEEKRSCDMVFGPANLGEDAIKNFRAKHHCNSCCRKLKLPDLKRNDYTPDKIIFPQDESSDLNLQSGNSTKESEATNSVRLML
Described as above. The class given is cell-based. The method, then: as §1, §2

Data set [4] has as its target T4, TRPM7-M991A (Mus musculus, UniProt Q923J1, M991A).
T4 construct: expressed in transfected cells; host or cells: HEK 293T
The description is as above. It is filed as cell-based. The procedure: as §1, §2

The target of data set [5] is T5, TRPM7-N1098Q (Mus musculus, UniProt Q923J1, N1098Q).
T5 construct: expressed in transfected cells; host or cells: HEK 293T
T5 sequence (Q923J1 whole entry N1098Q): as the sequence (Q923J1 whole entry A981V) above, with V981A, N1098Q counted along it
The description is as above. It is filed as cell-based. The procedure: as §1, §2

The target of data set [6] is T6, TRPM7-W1111A (Mus musculus, UniProt Q923J1, W1111A).
T6 construct: expressed in transfected cells; host or cells: HEK 293T
T6 sequence (Q923J1 whole entry W1111A): as the sequence (Q923J1 whole entry A981V) above, with V981A, W1111A counted along it
Described as above. It is filed as cell-based. The method, then: as §1, §2

The target of data set [7] is T7, TRPM7-L671A (Mus musculus, UniProt Q923J1, L671A).
T7 construct: expressed in transfected cells; host or cells: HEK 293T
T7 sequence (Q923J1 whole entry L671A): as the sequence (Q923J1 whole entry A981V) above, with L671A, V981A counted along it
Nature of the data set: Aequorin-based Ca2+ influx assay, activation by naltriben. It is filed as cell-based. The procedure:
as §1, §2

For data set [8], the system named is TRPM7-N1098Q. On the set-up: method as in Schmidt et al., 2022, PMID: 35389104. As to conditions: ref Schmidt et al., 2022, PMID: 35389104; cited from earlier work.
The nature of data set [9]: Solubility of the compound (authors' remark). Conditions: mM range could not be examined.
Setting [10] is: [NS8593] 7.0 µM, replicate values, read-out: TRPM7 activity, 100%.
[11] abbreviates: [NS8593] 0.3 µM, replicate values, read-out: TRPM7 activity, 100%.
The mark [12] stands for this setting: [NS8593] 0.7 µM, replicate values, read-out: TRPM7 activity, 100%.
Setting [13] is: [NS8593] 1.0 µM, replicate values, read-out: TRPM7 activity, 100%.
The mark [14] stands for this setting: [NS8593] 3.0 µM, replicate values, read-out: TRPM7 activity, 100%.

Like-named read-outs stand apart in the source and are kept apart here.

One may read the Hill coefficient as the slope factor of the fitted curve. The term IC50 denotes the concentration needed to halve the response being measured. The term EC50 denotes the midpoint of the concentration-response curve. A lower EC50 goes with an effect from little substance.

T2 sequence (Q923J1 whole entry A981L): as the sequence (Q923J1 whole entry A981V) above, with V981L counted along it
T1 sequence (Q923J1 whole entry): as the sequence (Q923J1 whole entry A981V) above, with V981A counted along it
T4 sequence (Q923J1 whole entry M991A): as the sequence (Q923J1 whole entry A981V) above, with V981A, M991A counted along it

As to `c1ccc2c(c1)CCC[C@H]2Nc1nc2ccccc2[nH]1` [NS8593], the remaining activity at 7 µM in data set [1] (setting [10]) was 0%; in data set [3] (setting [10]), 81.9%; in data set [5] (N1097Q (so in the source), [NS8593] 7.0 µM, replicate values, read-out: TRPM7 activity, 100%), 59.4%; in data set [6] (setting [10]), 50.3%. Also, the remaining activity at 30 µM in data set [1] ([NS8593] 30.0 µM, replicate values, read-out: TRPM7 activity, 100%) stood at 0%. In addition, the remaining activity at 50 µM turned out to be 0% in data set [1] ([NS8593] 50.0 µM, replicate values, read-out: TRPM7 activity, 100%) and 0% in [5] (N1097Q (so in the source), [NS8593] 50.0 µM, replicate values, read-out: TRPM7 activity, 100%). For the same compound, the Hill coefficient entry in data set [1] (antagonist, mean ± SEM) is listed as “–1.73 ± 0.26”; in data set [2] (antagonist, mean ± SEM), “–1.61 ± 0.45”; in [3] (antagonist, mean ± SEM), “–1.45 ± 0.50”; in data set [4] (M991A, antagonist, no added second inhibitor, mean ± SEM), “–1.24 ± 0.15”; in data set [4] (M991A, in the presence of 10 µM VER155008, mean ± SEM), “–1.43 ± 0.11”; in data set [5] (N1098Q, antagonist, mean ± SEM), “–0.93 ± 0.20”. In addition, the Hill coefficient result in data set [6] (antagonist, mean ± SEM) is given as “–1.54 ± 0.24”. Besides, the IC50 in data set [1] (antagonist, mean ± SEM) stood at 0.91 ± 0.08 µM; in [2] (antagonist, mean ± SEM), 11.6 ± 2.75 µM; in data set [3] (antagonist, mean ± SEM, read-out: IC50), 21.9 ± 12.3 µM; in data set [4] (M991A, antagonist, no added second inhibitor, mean ± SEM, read-out: IC50), 0.59 ± 0.05 µM; in data set [5] (N1098Q, antagonist, mean ± SEM) it was 20.5 ± 10.7 µM; in data set [6] (antagonist, mean ± SEM), 5.14 ± 0.45 µM. The remaining activity at 0.3 µM in data set [2] (setting [11]) was 105%; in data set [3] (setting [11]), 98.9%; in data set [5] (N1097Q (so in the source), [NS8593] 0.3 µM, replicate values, read-out: TRPM7 activity, 100%), 90.4%. Also, the remaining activity at 0.7 µM came to 114% in [2] (setting [12]); 97.4% in [3] (setting [12]); 77% in [4] (M991A in the presence of 10 µM VER155008, [NS8593] 0.7 µM, replicate values, read-out: TRPM7 activity, 100%); 87.7% in data set [5] (N1097Q (so in the source), [NS8593] 0.7 µM, replicate values, read-out: TRPM7 activity, 100%); 103% in data set [6] (setting [12]). In addition, the remaining activity at 1 µM came to 112% in data set [2] (setting [13]); 61.9% in data set [4] (M991A in the presence of 10 µM VER155008, [NS8593] 1.0 µM, replicate values, read-out: TRPM7 activity, 100%); 28.8% in [4] (M991A without VER155008, [NS8593] 1.0 µM, replicate values, read-out: TRPM7 activity, 100%); 82.4% in [5] (N1097Q (so in the source), [NS8593] 1.0 µM, replicate values, read-out: TRPM7 activity, 100%); 98.1% in data set [6] (setting [13]). Besides, the remaining activity at 3 µM in data set [2] (setting [14]) turned out to be 99.4%; in [4] (M991A in the presence of 10 µM VER155008, [NS8593] 3.0 µM, replicate values, read-out: TRPM7 activity, 100%), 17.1%; in [6] (setting [14]) it was 62.5%. In addition, the remaining activity at 5 µM in [4] (M991A in the presence of 10 µM VER155008, [NS8593] 5.0 µM, replicate values, read-out: TRPM7 activity, 100%) came to 11.9%; in [5] (N1097Q (so in the source), [NS8593] 5.0 µM, replicate values, read-out: TRPM7 activity, 100%), 64.3%. Further, the remaining activity at 0.5 µM in data set [5] (N1097Q (so in the source), [NS8593] 0.5 µM, replicate values, read-out: TRPM7 activity, 100%) is 95%; in data set [6] ([NS8593] 0.5 µM, replicate values, read-out: TRPM7 activity, 100%), 103%. In addition, in data set [5] (N1097Q (so in the source), [NS8593] 10.0 µM, replicate values, read-out: TRPM7 activity, 100%), the remaining activity at 10 µM came to 43.2%. The “TRPM7 activity, 100%” value in data set [5] (N1097Q (so in the source), [NS8593] 50.0 µM, replicate values) came to 0.0%.
The compound `Oc1ccc2c3c1O[C@H]1c4oc5ccccc5c4C[C@@]4(O)[C@@H](C2)N(CC2CC2)CC[C@]314` [Naltriben, naltriben] came in with a half-maximal effective concentration (EC50) in [7] of 145 ± 22.9 µM. In addition, the Hill coefficient in data set [7] (L671A, agonist, mean ± SEM) is given as 1.68 ± 0.32. For the same compound, in data set [8], the “response of the N1098Q variant to the agonist” value is on record as “did not respond”. Further, the solubility entry in data set [9] is “limited solubility”.

(Values after paper PMC10167348, “Structural mechanisms of TRPM7 activation and inhibition” (Nature Communications, 2023).)
